In US11572369B2, “Bicyclic pyridine compositions and methods of using the same for cancer therapy” (UNIVERSITY OF SOUTH CAROLINA, priority 2019, dated 2023):

Assays:
Experiment in all cases: KINOMEscan
Format in all cases: binding
Settings in all cases: 2000 nM
[1] = biological target: T1, ABL1(E255K)-phosphorylated (Homo sapiens, UniProt P00519, E255K)
T1 construct: DNA label (qPCR read-out); purchased DiscoverX (KINOMEscan service)

[2] = biological target: ABL1(H396P)-nonphosphorylated (Homo sapiens, UniProt P00519, H396P)
AKT3 = biological target: T2, AKT3 (Homo sapiens, UniProt Q9Y243)
T2 construct: purchased DiscoveRx (KINOMEscan scanMAX panel, service)

BLK = biological target: T3, BLK (Homo sapiens, UniProt P51451)
T3 construct: DNA label (for qPCR read-out); purchased KINOMEscan scanMAX panel (DiscoveRx)

BRK = biological target: T4, BRK (Homo sapiens, UniProt Q13882)
T4 construct: DNA label (for qPCR read-out); purchased KINOMEscan scanMAX panel (DiscoveRx)
T4 sequence (Q13882 whole entry): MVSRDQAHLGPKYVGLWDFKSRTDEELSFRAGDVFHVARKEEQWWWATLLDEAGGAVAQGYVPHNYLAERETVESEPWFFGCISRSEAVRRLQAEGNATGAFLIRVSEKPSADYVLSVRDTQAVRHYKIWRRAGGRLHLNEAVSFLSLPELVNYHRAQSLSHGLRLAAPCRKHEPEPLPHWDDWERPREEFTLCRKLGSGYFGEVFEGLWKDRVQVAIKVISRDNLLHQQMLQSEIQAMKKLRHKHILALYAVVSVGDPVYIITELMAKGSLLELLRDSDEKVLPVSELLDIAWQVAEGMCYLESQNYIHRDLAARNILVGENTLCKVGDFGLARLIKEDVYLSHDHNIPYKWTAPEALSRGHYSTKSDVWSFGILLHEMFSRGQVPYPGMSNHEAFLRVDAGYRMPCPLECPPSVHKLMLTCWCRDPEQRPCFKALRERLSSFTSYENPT

CAMK2G = biological target: T5, CAMK2G (Homo sapiens, UniProt Q13555)
T5 construct: DNA label (qPCR read-out); purchased KINOMEscan (ScanMAX panel service)

CDKL1 = biological target: T6, CDKL1 (Homo sapiens, UniProt Q00532)
T6 construct: purchased DiscoverX (KINOMEscan service)

CLK3 = biological target: T7, CLK3 (Homo sapiens, UniProt P49761)
T7 construct: DNA label (for qPCR read-out); purchased DiscoveRx (KINOMEscan scanMAX service)

CLK4 = biological target: T8, CLK4 (Homo sapiens, UniProt Q9HAZ1)
T8 construct: DNA label (for qPCR read-out); purchased DiscoveRx (KINOMEscan scanMAX service)

CSF1R-autoinhibited = biological target: T9, CSF1R-autoinhibited (Homo sapiens, UniProt P07333)
T9 construct: DNA label (for qPCR read-out); purchased DiscoveRx (KINOMEscan scanMAX service)
T9 sequence (P07333 539-972 limits assumed): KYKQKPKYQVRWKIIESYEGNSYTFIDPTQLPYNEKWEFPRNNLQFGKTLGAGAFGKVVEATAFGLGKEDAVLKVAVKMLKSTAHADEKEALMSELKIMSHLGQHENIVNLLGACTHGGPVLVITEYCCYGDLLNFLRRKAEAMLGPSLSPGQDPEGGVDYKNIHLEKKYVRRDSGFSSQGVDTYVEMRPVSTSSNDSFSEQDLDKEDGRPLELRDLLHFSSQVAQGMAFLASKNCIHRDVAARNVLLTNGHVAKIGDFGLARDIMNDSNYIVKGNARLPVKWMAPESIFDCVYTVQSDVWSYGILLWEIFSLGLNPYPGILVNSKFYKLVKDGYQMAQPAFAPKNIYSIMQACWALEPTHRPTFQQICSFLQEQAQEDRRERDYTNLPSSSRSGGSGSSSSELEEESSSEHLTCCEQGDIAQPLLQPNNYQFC

CSNK1A1L = biological target: T10, CSNK1A1L (Homo sapiens, UniProt Q8N752)
T10 construct: DNA label; purchased DiscoveRx (KINOMEscan scanMAX panel)

DMPK2 = biological target: T11, DMPK2 (Homo sapiens, UniProt Q6DT37)
T11 construct: DNA label (qPCR read-out); purchased KINOMEscan (DiscoveRx) panel

EGFR = biological target: T12, EGFR (Homo sapiens, UniProt P00533)
T12 construct: purchased DiscoveRx (KINOMEscan scanMAX panel)

EGFR(L858R) = biological target: T13, EGFR(L858R) (Homo sapiens, UniProt P00533, L858R)
T13 construct: purchased DiscoveRx (KINOMEscan scanMAX panel)

EGFR(L861Q) = biological target: T14, EGFR(L861Q) (Homo sapiens, UniProt P00533, L861Q)
T14 construct: purchased DiscoveRx (KINOMEscan scanMAX panel)

EPHA6 = biological target: T15, EPHA6 (Homo sapiens, UniProt Q9UF33)
T15 construct: purchased DiscoveRx (KINOMEscan scanMAX panel)

EPHB1 = biological target: T16, EPHB1 (Homo sapiens, UniProt P54762)
T16 construct: purchased DiscoveRx (KINOMEscan scanMAX panel)

HIPK1 = biological target: T17, HIPK1 (Homo sapiens, UniProt Q86Z02)
T17 construct: DNA label (for qPCR read-out); purchased DiscoveRx (KINOMEscan scanMAX panel, contract assay)

IGF1R = biological target: T18, IGF1R (Homo sapiens, UniProt P08069)
T18 construct: DNA label (qPCR read-out); purchased KINOMEscan (DiscoveRx) ScanMAX panel

[3] = biological target: T19, JAK3(JH1domain-catalytic) (Homo sapiens, UniProt P52333)
T19 construct: JAK3(JH1domain-catalytic); DNA label (for qPCR read-out); purchased DiscoveRx (KINOMEscan scanMAX panel)

MEK5 = biological target: T20, MEK5 (Homo sapiens, UniProt Q13163)
T20 construct: purchased DiscoveRx (KINOMEscan scanMAX panel, service)

MTOR = biological target: T21, MTOR (Homo sapiens, UniProt P42345)
T21 construct: DNA label (for qPCR read-out); purchased KINOMEscan scanMAX panel (DiscoveRx)

MYLK = biological target: T22, MYLK (Homo sapiens, UniProt Q15746)
T22 construct: DNA label (for qPCR read-out); purchased KINOMEscan scanMAX panel (DiscoveRx)
T22 sequence (Q15746 whole entry): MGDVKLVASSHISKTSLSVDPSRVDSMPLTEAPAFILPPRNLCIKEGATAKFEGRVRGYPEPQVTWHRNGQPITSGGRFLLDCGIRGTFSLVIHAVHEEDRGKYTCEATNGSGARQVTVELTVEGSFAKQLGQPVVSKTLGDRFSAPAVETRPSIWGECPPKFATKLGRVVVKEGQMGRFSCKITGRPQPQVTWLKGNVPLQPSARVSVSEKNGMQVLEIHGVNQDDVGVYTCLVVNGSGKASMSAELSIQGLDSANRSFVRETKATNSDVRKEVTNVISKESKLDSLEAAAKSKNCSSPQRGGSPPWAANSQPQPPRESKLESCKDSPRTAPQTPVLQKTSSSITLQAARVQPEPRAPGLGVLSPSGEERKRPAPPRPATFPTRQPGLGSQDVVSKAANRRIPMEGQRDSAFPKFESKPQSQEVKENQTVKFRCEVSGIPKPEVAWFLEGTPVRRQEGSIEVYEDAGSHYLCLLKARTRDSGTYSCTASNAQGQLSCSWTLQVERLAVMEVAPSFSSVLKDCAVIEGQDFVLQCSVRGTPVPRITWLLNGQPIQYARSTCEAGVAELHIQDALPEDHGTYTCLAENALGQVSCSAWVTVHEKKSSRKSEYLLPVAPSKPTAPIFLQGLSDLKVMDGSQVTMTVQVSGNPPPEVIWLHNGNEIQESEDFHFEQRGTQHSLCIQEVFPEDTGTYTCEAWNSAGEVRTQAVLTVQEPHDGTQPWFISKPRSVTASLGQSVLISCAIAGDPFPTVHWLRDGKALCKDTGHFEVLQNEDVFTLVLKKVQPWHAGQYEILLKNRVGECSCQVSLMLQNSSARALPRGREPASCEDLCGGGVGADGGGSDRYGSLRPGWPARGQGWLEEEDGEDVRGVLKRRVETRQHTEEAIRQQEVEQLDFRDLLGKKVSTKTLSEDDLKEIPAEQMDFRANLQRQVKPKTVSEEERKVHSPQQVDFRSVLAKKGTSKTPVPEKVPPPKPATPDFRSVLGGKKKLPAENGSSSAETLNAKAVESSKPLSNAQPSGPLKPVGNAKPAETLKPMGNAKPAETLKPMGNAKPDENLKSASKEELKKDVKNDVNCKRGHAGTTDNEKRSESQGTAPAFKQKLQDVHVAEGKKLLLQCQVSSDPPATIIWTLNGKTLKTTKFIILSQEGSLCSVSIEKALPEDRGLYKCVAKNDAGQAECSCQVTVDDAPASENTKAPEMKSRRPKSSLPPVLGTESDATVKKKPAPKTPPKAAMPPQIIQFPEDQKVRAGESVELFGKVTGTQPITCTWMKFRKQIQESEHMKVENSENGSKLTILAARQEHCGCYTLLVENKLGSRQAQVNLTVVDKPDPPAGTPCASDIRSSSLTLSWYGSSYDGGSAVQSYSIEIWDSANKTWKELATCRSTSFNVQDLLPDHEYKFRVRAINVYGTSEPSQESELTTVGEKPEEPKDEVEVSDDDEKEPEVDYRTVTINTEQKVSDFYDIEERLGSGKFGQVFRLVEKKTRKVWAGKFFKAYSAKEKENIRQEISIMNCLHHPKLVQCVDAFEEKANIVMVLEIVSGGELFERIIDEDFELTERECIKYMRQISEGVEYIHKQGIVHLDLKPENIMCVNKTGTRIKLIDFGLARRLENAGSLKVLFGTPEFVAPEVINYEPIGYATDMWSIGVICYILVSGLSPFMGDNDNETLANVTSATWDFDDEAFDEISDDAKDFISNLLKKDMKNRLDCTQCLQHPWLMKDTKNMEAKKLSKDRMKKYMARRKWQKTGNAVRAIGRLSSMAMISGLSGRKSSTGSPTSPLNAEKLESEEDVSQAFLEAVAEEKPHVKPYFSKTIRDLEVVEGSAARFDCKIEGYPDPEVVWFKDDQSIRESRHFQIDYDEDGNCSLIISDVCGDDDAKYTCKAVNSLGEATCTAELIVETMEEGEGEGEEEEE

PAK6 = biological target: T23, PAK6 (Homo sapiens, UniProt Q9NQU5)
T23 construct: purchased DiscoverX (KINOMEscan service)

PIK3C2G = biological target: T24, PIK3C2G (Homo sapiens, UniProt O75747)
T24 construct: DNA label (for qPCR read-out); purchased DiscoveRx (KINOMEscan scanMAX service)

PIK3CA(H1047L) = biological target: T25, PIK3CA(H1047L) (Homo sapiens, UniProt P42336, H1047L)
T25 construct: DNA label; purchased DiscoveRx (KINOMEscan scanMAX panel)

PIP5K2C = biological target: T26, PIP5K2C (Homo sapiens, UniProt Q8TBX8)
T26 construct: DNA label (qPCR read-out); purchased KINOMEscan (DiscoveRx) panel

PRKCH = biological target: T27, PRKCH (Homo sapiens, UniProt P24723)
T27 construct: purchased DiscoveRx (KINOMEscan scanMAX panel)

PRKG1 = biological target: T28, PRKG1 (Homo sapiens, UniProt Q13976)
T28 construct: purchased DiscoveRx (KINOMEscan scanMAX panel)

QSK = biological target: T29, QSK (Homo sapiens, UniProt Q9Y2K2)
T29 construct: purchased DiscoveRx (KINOMEscan scanMAX panel)

SLK = biological target: T30, SLK (Homo sapiens, UniProt Q9H2G2)
T30 construct: purchased KINOMEscan (DiscoveRx)
T30 sequence (Q9H2G2 whole entry): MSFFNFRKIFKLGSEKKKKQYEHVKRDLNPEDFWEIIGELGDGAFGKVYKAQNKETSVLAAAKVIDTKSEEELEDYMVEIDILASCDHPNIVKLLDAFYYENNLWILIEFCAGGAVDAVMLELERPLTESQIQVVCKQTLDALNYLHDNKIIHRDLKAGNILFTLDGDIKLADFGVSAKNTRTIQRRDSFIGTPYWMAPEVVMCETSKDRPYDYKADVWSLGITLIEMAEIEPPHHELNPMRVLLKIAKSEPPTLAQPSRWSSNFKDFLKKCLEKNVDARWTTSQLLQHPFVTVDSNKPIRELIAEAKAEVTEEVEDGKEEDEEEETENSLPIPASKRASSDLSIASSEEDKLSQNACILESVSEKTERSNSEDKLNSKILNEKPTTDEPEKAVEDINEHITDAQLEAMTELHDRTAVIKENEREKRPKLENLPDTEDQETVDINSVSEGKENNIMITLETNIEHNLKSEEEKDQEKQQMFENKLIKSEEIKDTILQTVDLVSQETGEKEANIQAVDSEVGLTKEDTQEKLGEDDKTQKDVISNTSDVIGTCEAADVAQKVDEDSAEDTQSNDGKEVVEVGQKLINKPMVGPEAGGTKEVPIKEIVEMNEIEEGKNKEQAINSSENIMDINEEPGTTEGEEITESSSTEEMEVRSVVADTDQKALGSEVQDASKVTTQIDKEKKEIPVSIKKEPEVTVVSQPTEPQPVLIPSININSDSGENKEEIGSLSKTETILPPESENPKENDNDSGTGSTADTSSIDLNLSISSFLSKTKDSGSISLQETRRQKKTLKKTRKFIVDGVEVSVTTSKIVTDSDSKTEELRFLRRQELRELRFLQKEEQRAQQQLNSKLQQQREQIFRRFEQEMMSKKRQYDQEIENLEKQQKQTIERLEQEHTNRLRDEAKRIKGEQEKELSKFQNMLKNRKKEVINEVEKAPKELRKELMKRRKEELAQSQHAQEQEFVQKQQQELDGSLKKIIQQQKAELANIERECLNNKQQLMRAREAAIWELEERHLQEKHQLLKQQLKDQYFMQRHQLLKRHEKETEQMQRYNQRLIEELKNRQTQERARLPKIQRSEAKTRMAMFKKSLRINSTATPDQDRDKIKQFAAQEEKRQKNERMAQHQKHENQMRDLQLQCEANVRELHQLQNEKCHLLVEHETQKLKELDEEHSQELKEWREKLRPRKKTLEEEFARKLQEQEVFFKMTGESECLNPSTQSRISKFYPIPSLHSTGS

SNRK = biological target: T31, SNRK (Homo sapiens, UniProt Q9NRH2)
T31 construct: purchased KINOMEscan (DiscoveRx)

TAK1 = biological target: T32, TAK1 (Homo sapiens, UniProt O43318)
T32 construct: DNA label (for qPCR read-out); purchased DiscoveRx (KINOMEscan scanMAX panel, contract assay)

TEC = biological target: T33, TEC (Homo sapiens, UniProt P42680)
T33 construct: DNA label (for qPCR read-out); purchased DiscoveRx (KINOMEscan scanMAX panel, contract assay)

TNK2 = biological target: T34, TNK2 (Homo sapiens, UniProt Q07912)
T34 construct: DNA label (qPCR read-out); purchased KINOMEscan (DiscoveRx) ScanMAX panel
T34 sequence (Q07912 whole entry): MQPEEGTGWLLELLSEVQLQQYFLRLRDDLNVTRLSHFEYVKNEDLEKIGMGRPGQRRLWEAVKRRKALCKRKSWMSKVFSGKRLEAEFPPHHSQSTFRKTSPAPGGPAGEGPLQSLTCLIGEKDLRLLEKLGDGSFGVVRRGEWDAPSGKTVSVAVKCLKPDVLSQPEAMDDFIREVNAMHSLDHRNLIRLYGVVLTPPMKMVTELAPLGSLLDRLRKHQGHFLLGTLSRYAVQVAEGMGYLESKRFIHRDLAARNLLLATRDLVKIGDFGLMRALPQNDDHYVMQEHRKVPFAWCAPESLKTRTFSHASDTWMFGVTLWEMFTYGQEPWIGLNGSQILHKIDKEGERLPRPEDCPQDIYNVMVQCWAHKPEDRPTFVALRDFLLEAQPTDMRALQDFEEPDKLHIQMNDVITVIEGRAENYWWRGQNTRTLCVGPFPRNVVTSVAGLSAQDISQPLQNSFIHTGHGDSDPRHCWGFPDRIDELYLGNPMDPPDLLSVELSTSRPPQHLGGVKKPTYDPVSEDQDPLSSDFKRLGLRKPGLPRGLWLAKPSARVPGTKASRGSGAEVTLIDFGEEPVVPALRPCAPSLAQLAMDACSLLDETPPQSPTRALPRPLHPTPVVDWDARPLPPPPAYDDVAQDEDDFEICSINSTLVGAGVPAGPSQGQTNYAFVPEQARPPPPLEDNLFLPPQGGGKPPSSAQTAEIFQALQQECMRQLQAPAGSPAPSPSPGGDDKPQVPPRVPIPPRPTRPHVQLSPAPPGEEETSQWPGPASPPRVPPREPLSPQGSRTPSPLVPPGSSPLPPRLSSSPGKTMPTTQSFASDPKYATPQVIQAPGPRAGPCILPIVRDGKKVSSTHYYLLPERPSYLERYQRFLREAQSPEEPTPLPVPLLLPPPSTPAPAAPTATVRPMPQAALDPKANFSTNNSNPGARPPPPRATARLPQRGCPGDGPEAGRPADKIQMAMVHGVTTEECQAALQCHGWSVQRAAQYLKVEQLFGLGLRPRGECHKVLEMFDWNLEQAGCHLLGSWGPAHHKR

WNK4 = biological target: T35, WNK4 (Homo sapiens, UniProt Q96J92)
T35 construct: purchased KINOMEscan (DiscoveRx) panel service

SMILES | % Ctrl [1] | % Ctrl [2] | % Ctrl (AKT3) | % Ctrl (BLK) | % Ctrl (BRK) | % Ctrl (CAMK2G) | % Ctrl (CDKL1) | % Ctrl (CLK3) | % Ctrl (CLK4) | % Ctrl (CSF1R-autoinhibited) | % Ctrl (CSNK1A1L) | % Ctrl (DMPK2) | % Ctrl (EGFR) | % Ctrl (EGFR(L858R)) | % Ctrl (EGFR(L861Q)) | % Ctrl (EPHA6) | % Ctrl (EPHB1) | % Ctrl (HIPK1) | % Ctrl (IGF1R) | % Ctrl [3] | also measured
[2H]C([2H])([2H])N(C(=O)c1ccc(N2CCCN(c3ccnc4sc(C(N)=O)c(N)c34)CC2)cc1)C([2H])([2H])[2H] [15u_D6, 3-amino-4-(4-(4-(bis(methyl-d3)carbamoyl)phenyl)-1,4-diazepan-1-yl)thieno[2,3-b]pyridine-2-carboxamide] | 82 % Ctrl | 76 % Ctrl | 100 % Ctrl | 92 % Ctrl | 99 % Ctrl | 100 % Ctrl | 92 % Ctrl | 95 % Ctrl | 66 % Ctrl | 83 % Ctrl | 37 % Ctrl | 94 % Ctrl | 87 % Ctrl | 93 % Ctrl | 100 % Ctrl | 100 % Ctrl | 88 % Ctrl | 71 % Ctrl | 91 % Ctrl | 80 % Ctrl | % Ctrl (MEK5): 65 % Ctrl; % Ctrl (MTOR): 97 % Ctrl; % Ctrl (MYLK): 71 % Ctrl; % Ctrl (PAK6): 99 % Ctrl; % Ctrl (PIK3C2G): 82 % Ctrl; % Ctrl (PIK3CA(H1047L)): 80 % Ctrl; % Ctrl (PIP5K2C): 64 % Ctrl; % Ctrl (PRKCH): 96 % Ctrl; % Ctrl (PRKG1): 100 % Ctrl; % Ctrl (QSK): 97 % Ctrl; % Ctrl (SLK): 54 % Ctrl; % Ctrl (SNRK): 75 % Ctrl; % Ctrl (TAK1): 62 % Ctrl; % Ctrl (TEC): 81 % Ctrl; % Ctrl (TNK2): 100 % Ctrl; % Ctrl (WNK4): 98 % Ctrl
CN(C)C(=O)c1ccc(N2CCCN(c3ccnc4sc(C(N)=O)c(N)c34)CC2)cc1 [15u, 3-amino-4-(4-(4-(dimethylcarbamoyl)phenyl)-1,4-diazepan-1-yl)thieno[2,3-b]pyridine-2-carboxamide] | 100 % Ctrl | 100 % Ctrl | 97 % Ctrl | 100 % Ctrl | 100 % Ctrl | 100 % Ctrl | 100 % Ctrl | 100 % Ctrl | 59 % Ctrl | 88 % Ctrl | 67 % Ctrl | 93 % Ctrl | 100 % Ctrl | 99 % Ctrl | 78 % Ctrl | 100 % Ctrl | 88 % Ctrl | 86 % Ctrl | 92 % Ctrl | 83 % Ctrl | % Ctrl (MEK5): 86 % Ctrl; % Ctrl (MTOR): 88 % Ctrl; % Ctrl (MYLK): 74 % Ctrl; % Ctrl (PAK6): 82 % Ctrl; % Ctrl (PIK3C2G): 94 % Ctrl; % Ctrl (PIK3CA(H1047L)): 94 % Ctrl; % Ctrl (PIP5K2C): 80 % Ctrl; % Ctrl (PRKCH): 80 % Ctrl; % Ctrl (PRKG1): 88 % Ctrl; % Ctrl (QSK): 89 % Ctrl; % Ctrl (SLK): 56 % Ctrl; % Ctrl (SNRK): 100 % Ctrl; % Ctrl (TAK1): 93 % Ctrl; % Ctrl (TEC): 91 % Ctrl; % Ctrl (TNK2): 100 % Ctrl; % Ctrl (WNK4): 60 % Ctrl
